# From US7618958B2, “Stereospecific anxiolytic and anticonvulsant agents with reduced muscle-relaxant, sedative-hypnotic and ataxic effects” (WISYS Technology Foundation, Inc., priority 2004, dated 2009)
# Experiments:
# Male Sprague-Dawley rats [1] = assay: Open-field locomotor activity in rats; settings: for sedative or hypnotic effects (locomotor activity): compared with diazepam or triazolam; for Antianxiety/sedation: ratio of lowest effective anxiolytic dose (situational anxiety) and lowest effective dose producing side effects in locomotor activity, PO
# Description: Open-Field Locomotor Activity in Rats
# Male Sprague-Dawley rats, weighing 250-290 grams at the beginning of the experiment were purchased from Charles River Laboratories (Wilmington, Mass.). The animals were housed in groups of four in a colony room maintained at constant temperature (21±2° C.) and humidity (50±10%). The room was illuminated 12 hours per day (lights on at 0600 h). The rats had ad libitum access to food and water. The testing apparatus consisted of Plexiglas chambers (42×42×30 cm) equipped with Digiscan activity monitors (Omnitech Electronics, Columbus, Ohio) that detect interruptions of 16 photobeams spaced 2.5 cm apart and 2.5 cm above the floor. Horizontal activity was monitored for 60 minutes.
# (§1) Drug Administration: All drugs were administered PO 20-60 minutes before behavioral testing.
# (§2) Data Analysis: Results were expressed as the mean±1 SEM. All data were subjected to analysis of variance (ANOVA) followed by individual mean comparisons using Fisher's Least Significant Difference Test (Kirk, 1968) where appropriate. The significance level was set at p<0.05.
# Rats were placed in an open field and the total distance covered by the rat was measured. The test duration was 60 minutes. Compounds producing sedative effects decrease the distance covered.
# Male Sprague-Dawley rats [2] = assay: Rotorod performance in rats; settings: for ataxia (rotorod): compared with diazepam or triazolam; for Antianxiety/ataxia: ratio of lowest effective anxiolytic dose (situational anxiety) and lowest effective dose producing side effects in rotorod, PO
# Description: Rotorod Performance in Rats
# Male Sprague-Dawley rats, weighing 180-200 grams at the beginning of the experiment were purchased from Charles River Laboratories (Wilmington, Mass.). The animals were housed in groups of four in a colony room maintained at constant temperature (21±2° C.) and humidity (50±10%). The room was illuminated 12 hours per day (lights on at 0600 h). The rats had ad libitum access to food and water. The degree of muscle coordination or balance (i.e., ataxia) was determined using a standard accelerating rotorod treadmill (Ugo Basile, Comerio-Varese, Italy or Columbus Instruments, Columbus, Ohio) that was 6 cm in diameter, 24 cm above the base, and run from an initial speed of 2 rpm to a maximum speed of 20 rpm. The time each animal remained on the rotating rod was automatically recorded, up to a maximum of 5 minutes.
# as §1, §2
# The time on the rod for each rat was recorded. Compounds producing ataxia (motor incoordination) decrease the time spent on the rod compared with vehicle-treated animals.
# Male CF1 mice = assay: Protection from pentylenetetrazole-induced seizures; format: in vivo, mouse; settings: for PTZ Seizures, effective dose: PO 60 min before pentylenetetrazole 125 mg/kg s.c.; for anticonvulsant effects against PTZ-induced seizures: PTZ 125 mg/kg
# Description: Protection from Pentylenetetrazole-Induced Seizures
# Male CF1 mice weighing 20-22 g at the time of the experiment were purchased from Charles River Laboratories (Wilmington, Mass.). Pentylenetetrazole (Sigma Chemical Co.) was administered at 125 mg/kg s.c. The number of animals surviving was recorded at 30 minutes and 60 minutes after administration of pentylenetetrazole.
# Drug Administration: All drugs were administered PO 60 minutes before administration of pentyenetetrazole.
# Data Analysis: The data are presented as the percent of animals protected from death. The data were analyzed by Chi Square statistics. The significance level was set at p<0.05.
# Mice treated with certain compounds of the present invention were subjected to pentylenetetrazole (PTZ) at 125 mg/kg to induce seizures. The percent of animals protected from death within one hour of PTZ was measured.
# GABAA/α5 receptors = GABAA/α5 receptors (Homo sapiens, UniProt P18507+P31644); settings: cited from earlier work
# GABAA/α2 = GABAA/α2 (Homo sapiens, UniProt P18507+P47869); settings: cited from earlier work
# GABAA/α3 = GABAA/α3 (Homo sapiens, UniProt P18507+P34903); settings: cited from earlier work
# GABAA/α1 receptors = GABAA/α1 receptors (Homo sapiens, UniProt P14867+P18507); settings: cited from earlier work
# Male Sprague-Dawley rats [3] = assay: Discriminative stimulus effects of chlordiazepoxide in rats (drug discrimination); settings: for CDP-like effects (drug discrimination): compared with diazepam or triazolam; for Antianxiety/abuse liability: ratio of lowest effective anxiolytic dose (situational anxiety) and lowest effective dose producing chlordiazepoxide-like effects in drug discrimination
# Chain of GABAA/α5 receptors (P31644 32-462): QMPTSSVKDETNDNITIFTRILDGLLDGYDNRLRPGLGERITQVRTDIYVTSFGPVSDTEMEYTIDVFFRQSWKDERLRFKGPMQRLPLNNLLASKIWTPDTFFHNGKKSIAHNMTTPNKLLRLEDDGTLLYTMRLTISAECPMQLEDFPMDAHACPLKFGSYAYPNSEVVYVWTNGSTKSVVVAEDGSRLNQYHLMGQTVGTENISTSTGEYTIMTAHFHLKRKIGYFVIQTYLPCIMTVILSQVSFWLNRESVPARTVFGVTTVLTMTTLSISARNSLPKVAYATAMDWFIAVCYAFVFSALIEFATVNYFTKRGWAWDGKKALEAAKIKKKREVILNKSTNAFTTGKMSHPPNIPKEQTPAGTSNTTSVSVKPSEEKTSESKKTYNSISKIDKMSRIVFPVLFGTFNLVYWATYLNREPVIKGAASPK
# Chain of GABAA/α5 receptors (P28472 26-473 partner): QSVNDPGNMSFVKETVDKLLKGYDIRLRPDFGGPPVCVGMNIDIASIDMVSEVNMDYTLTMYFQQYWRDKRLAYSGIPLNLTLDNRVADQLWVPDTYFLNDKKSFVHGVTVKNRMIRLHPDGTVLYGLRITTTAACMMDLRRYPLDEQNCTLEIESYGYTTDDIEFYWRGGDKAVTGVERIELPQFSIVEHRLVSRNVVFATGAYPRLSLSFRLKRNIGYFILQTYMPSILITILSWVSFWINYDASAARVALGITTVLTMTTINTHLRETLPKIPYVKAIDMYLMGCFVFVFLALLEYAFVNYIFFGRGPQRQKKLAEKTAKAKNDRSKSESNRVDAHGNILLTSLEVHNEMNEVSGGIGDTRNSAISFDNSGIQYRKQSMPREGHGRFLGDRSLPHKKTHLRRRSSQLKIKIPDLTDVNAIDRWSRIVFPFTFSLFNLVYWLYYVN
# Chain of GABAA/α5 receptors (P18507 40-475): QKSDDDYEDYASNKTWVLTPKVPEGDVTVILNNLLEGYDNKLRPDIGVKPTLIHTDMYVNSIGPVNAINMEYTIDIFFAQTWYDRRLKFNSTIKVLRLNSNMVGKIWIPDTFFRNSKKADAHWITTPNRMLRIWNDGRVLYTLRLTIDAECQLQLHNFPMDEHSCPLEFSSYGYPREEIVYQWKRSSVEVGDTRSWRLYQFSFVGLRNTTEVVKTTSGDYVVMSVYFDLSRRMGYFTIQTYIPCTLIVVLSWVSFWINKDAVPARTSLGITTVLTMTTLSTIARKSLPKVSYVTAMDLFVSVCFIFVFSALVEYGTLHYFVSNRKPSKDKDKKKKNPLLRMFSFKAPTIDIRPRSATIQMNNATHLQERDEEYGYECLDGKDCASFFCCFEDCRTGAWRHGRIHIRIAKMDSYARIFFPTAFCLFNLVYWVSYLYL
# Chain of GABAA/α3 (P34903 29-492): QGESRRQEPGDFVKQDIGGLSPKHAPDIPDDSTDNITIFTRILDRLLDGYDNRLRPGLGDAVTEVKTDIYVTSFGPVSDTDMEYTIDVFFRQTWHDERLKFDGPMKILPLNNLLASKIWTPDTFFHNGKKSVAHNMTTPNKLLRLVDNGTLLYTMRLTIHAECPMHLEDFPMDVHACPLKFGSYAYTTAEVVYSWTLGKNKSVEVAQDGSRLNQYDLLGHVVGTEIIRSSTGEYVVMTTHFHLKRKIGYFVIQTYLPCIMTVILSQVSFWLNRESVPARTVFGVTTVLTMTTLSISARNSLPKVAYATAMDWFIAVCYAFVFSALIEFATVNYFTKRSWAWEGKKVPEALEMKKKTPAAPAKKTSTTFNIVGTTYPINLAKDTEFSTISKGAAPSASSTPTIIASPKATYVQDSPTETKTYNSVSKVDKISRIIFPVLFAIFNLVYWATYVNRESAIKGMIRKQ
# Chain of GABAA/α3 (P28472 26-473 partner): as the sequence (P28472 26-473 partner) above
# Chain of GABAA/α3 (P18507 40-475): as the sequence (P18507 40-475) above
# Chain of GABAA/α2 (P47869 29-451): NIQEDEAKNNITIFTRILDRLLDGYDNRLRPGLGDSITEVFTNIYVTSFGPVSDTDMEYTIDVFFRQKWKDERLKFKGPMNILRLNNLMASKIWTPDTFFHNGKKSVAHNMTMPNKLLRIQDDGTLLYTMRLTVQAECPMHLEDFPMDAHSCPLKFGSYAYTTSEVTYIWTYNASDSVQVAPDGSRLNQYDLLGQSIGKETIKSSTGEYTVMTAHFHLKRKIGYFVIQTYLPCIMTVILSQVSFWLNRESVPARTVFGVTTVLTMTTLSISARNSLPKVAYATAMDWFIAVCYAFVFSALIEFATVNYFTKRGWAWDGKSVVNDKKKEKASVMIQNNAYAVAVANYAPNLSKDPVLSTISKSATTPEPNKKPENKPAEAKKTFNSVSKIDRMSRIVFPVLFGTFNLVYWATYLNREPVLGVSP
# Chain of GABAA/α2 (P28472 26-473 partner): as the sequence (P28472 26-473 partner) above
# Chain of GABAA/α2 (P18507 40-475): as the sequence (P18507 40-475) above
# Chain of GABAA/α1 receptors (P14867 28-456): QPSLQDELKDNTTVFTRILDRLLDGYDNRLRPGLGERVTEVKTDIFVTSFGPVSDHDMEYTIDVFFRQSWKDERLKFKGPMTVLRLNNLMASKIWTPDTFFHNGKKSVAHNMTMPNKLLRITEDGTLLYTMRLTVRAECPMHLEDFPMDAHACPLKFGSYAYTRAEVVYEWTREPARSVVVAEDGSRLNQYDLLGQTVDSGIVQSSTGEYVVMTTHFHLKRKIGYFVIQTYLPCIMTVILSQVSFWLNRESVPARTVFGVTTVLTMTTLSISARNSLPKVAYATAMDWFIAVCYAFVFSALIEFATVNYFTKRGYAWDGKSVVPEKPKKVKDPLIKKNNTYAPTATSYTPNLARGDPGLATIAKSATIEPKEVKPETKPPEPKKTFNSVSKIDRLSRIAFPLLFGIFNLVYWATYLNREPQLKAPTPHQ
# Chain of GABAA/α1 receptors (P28472 26-473 partner): as the sequence (P28472 26-473 partner) above
# Chain of GABAA/α1 receptors (P18507 40-475): as the sequence (P18507 40-475) above
Structure (SMILES),sedative or hypnotic effects (locomotor activity) (Male Sprague-Dawley rats [1]),Antianxiety/sedation (Male Sprague-Dawley rats [1]),ataxia (rotorod) (Male Sprague-Dawley rats [2]),Antianxiety/ataxia (Male Sprague-Dawley rats [2]),"PTZ Seizures, effective dose (Male CF1 mice)",anticonvulsant effects against PTZ-induced seizures (Male CF1 mice),Ki (GABAA/α5 receptors),Ki (GABAA/α2),Ki (GABAA/α3),Ki (GABAA/α1 receptors),CDP-like effects (drug discrimination) (Male Sprague-Dawley rats [3]),Antianxiety/abuse liability (Male Sprague-Dawley rats [3])
"C#Cc1ccc2c(c1)C(c1ccccc1)=NCC(=O)N2C [QH-ii-066, 1-Methyl-7-acetyleno-5-phenyl-1,3-dihydro-benzo [e]-1,4-diazepin-2-one]",less effective in producing sedative or hypnotic effects than diazepam or triazolam,100,less potent in producing ataxia than diazepam or triazolam,>100,<30 mg/kg,anticonvulsant effects against PTZ-induced seizures at doses comparable to those for diazepam and triazolam,< 10 nM,< 50 nM,< 50 nM,> 70 nM,less potent in producing CDP-like effects than diazepam or triazolam,30
"C#Cc1ccc2c(c1)C(c1ccccc1)=NCc1c(C(=O)OCC)ncn1-2 [XHe-ii-053, Ethyl 8-acetylenyl-6-phenyl-4H-benzo[f]imidazo[1,5-a][1,4]diazepine-3-carboxylate]",less effective in producing sedative or hypnotic effects than diazepam or triazolam,>300,less potent in producing ataxia than diazepam or triazolam,>300,≦100 mg/kg,effective against PTZ-induced seizures,,,,,less potent in producing CDP-like effects than diazepam or triazolam,>300
"C#Cc1ccc2c(c1)C(c1ccccc1Cl)=NCc1nnc(C)n1-2 [XLi-JY-DMH, 8-Acetyleno-5-(2′-chlorophenyl)-1-methyl-4H-s-triazolo-[4,3-a]-1,4-benzodiazepine]",less effective in producing sedative or hypnotic effects than diazepam or triazolam,10000,less potent in producing ataxia than diazepam or triazolam,10000,<1.0 mg/kg,anticonvulsant effects against PTZ-induced seizures at doses comparable to those for diazepam and triazolam,,,,,less potent in producing CDP-like effects than diazepam or triazolam,1000
